In patent US10689354B2, “Aminoazole derivative” (Teijin Pharma Limited, priority 2015, dated 2020):

molecular target: T1, androgen receptor (AR-LBD) (Rattus norvegicus, UniProt P15207); experiment: Evaluation of androgen receptor affinity (PolarScreen Androgen Receptor Competitor Assay Kit, Red; fluorescence polarization); conditions: 22° C. for 5 hours, relative to binding rate of 1 μM DHT, read-out: AR affinity (pEC50) (converted)
T1 construct: 5 μL of 2×AR-LBD/Fluoromone AL Red Complex contained in the kit; purchased Invitrogen
T1 sequence (P15207 651-882 limits assumed): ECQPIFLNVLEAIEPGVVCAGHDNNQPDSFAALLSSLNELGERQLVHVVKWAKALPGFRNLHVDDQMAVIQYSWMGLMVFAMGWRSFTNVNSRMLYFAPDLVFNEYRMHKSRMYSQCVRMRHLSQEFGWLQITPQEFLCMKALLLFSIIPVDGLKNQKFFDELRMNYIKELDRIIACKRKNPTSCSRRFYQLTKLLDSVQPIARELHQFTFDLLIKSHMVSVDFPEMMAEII
Outline: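 Duplicate wells of test compound were mixed with the kit's rat AR-LBD–Fluoromone AL Red tracer complex and left 5 hours at 22 °C before polarization was read. A 4-parameter fit gave pEC50, with binding rate referenced to 1 μM dihydrotestosterone.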

Going from `Cc1sc(N(Cc2ccccc2)c2cccnn2)nc1C(=O)NS(C)(=O)=O` [Example 238, 2-[benzyl(pyridazin-3-yl)amino]-5-methyl-N-methylsulfonyl-thiazole-4-carboxamide] to `Cc1sc(N(Cc2ccccc2)c2ccc(C#N)cn2)nc1C(=O)NS(C)(=O)=O` [Compound 602, 2-[benzyl-(5-cyano-2-pyridyl)amino]-5-methyl-N-methylsulfonyl-thiazole-4-carboxamide], the EC50 falls from greater than 2000 nM to 501 nM.

`Cc1sc(N(Cc2ccccc2)c2ccc(CCOCc3ccccc3)cc2)nc1C(=O)NS(C)(=O)=O` [Example 235, 2-[N-benzyl-4-(2-benzyloxyethyl)anilino]-5-methyl-N-methylsulfonyl-thiazole-4-carboxamide] and `Cc1sc(N(Cc2ccccc2)c2ccc(OCc3ccccc3)cc2)nc1C(=O)NS(C)(=O)=O` [Compound 38, 2-(N-benzyl-4-benzyloxy-anilino)-5-methyl-N-methylsulfonyl-thiazole-4-carboxamide] cannot be ordered by EC50: greater than 2000 nM for the first, greater than 2000 nM for the second.

`Cc1sc(N(Cc2ccccc2)c2cccc(CCO)c2)nc1C(=O)NS(C)(=O)=O` [Compound 605, 2-[N-benzyl-3-(2-hydroxyethyl)anilino]-5-methyl-N-methylsulfonyl-thiazole-4-carboxamide] and `Cc1sc(N(Cc2ccccc2)c2ccc(CO)cc2)nc1C(=O)NS(C)(=O)=O` [Example 226, 2-[N-benzyl-4-(hydroxymethyl)anilino]-5-methyl-N-methylsulfonyl-thiazole-4-carboxamide] cannot be ordered by EC50: greater than 2000 nM for the first, greater than 2000 nM for the second.

`Cc1sc(N(CCN2CCCC2=O)c2ccc(C#N)cc2)nc1C(=O)NS(C)(=O)=O` [Compound 137, 2-[4-cyano-N-[2-(2-oxopyrrolidin-1-yl)ethyl]anilino]-5-methyl-N-methylsulfonyl-thiazole-4-carboxamide] and `Cc1sc(N(CC2CC2)c2ccc(C#N)cc2)nc1C(=O)NS(C)(=O)=O` [Compound 67, 2-[4-cyano-N-(cyclopropylmethyl)anilino]-5-methyl-N-methylsulfonyl-thiazole-4-carboxamide] cannot be ordered by EC50: greater than 2000 nM for the first, greater than 2000 nM for the second.

`Cc1sc(N(CCCc2ccccc2)c2ccc(C#N)cc2)nc1C(=O)NS(C)(=O)=O` [Compound 433, 2-[4-cyano-N-(3-phenylpropyl)anilino]-5-methyl-N-methylsulfonyl-thiazole-4-carboxamide] and `Cc1sc(N(CCc2ccccn2)c2ccc(C#N)cc2)nc1C(=O)NS(C)(=O)=O` [Compound 130, 2-[4-cyano-N-[2-(2-pyridyl)ethyl]anilino]-5-methyl-N-methylsulfonyl-thiazole-4-carboxamide] cannot be ordered by EC50: greater than 2000 nM for the first, greater than 2000 nM for the second.

Going from `Cc1nc(CN(c2ccc(C#N)cc2)c2nc(C(=O)NS(C)(=O)=O)c(C)o2)cs1` [Compound 619, 2-[4-cyano-N-[(2-methylthiazol-4-yl)methyl]anilino]-5-methyl-N-methylsulfonyl-oxazole-4-carboxamide] to `Cc1ccc(CN(c2ccc(C#N)cc2)c2nc(C(=O)NS(C)(=O)=O)c(Br)s2)cc1` [Example 246, 5-bromo-2-[4-cyano-N-(p-tolylmethyl)anilino]-N-methylsulfonyl-thiazole-4-carboxamide], the EC50 falls from greater than 2000 nM to 39.8 nM.

`Cc1sc(N(CC(=O)NC2CCCCC2)c2ccc(C#N)cc2)nc1C(=O)NS(C)(=O)=O` [Compound 423, 2-(4-cyano-N-[2-(cyclohexylamino)-2-oxo-ethyl]anilino)-5-methyl-N-methylsulfonyl-thiazole-4-carboxamide] and `Cc1sc(N(CC2CCOCC2)c2ccc(C#N)cc2)nc1C(=O)NS(C)(=O)=O` [Compound 346, 2-[4-cyano-N-(tetrahydropyran-4-ylmethyl)anilino]-5-methyl-N-methylsulfonyl-thiazole-4-carboxamide] cannot be ordered by EC50: greater than 2000 nM for the first, greater than 2000 nM for the second.

Going from `Cc1ccc(S(=O)(=O)n2cc(CCN(Cc3ccccc3)c3nc(C(=O)NS(C)(=O)=O)c(C)s3)c3ccccc32)cc1` [Example 318, 2-[benzyl-[2-[1-(p-tolylsulfonyl)indol-3-yl]ethyl]amino]-5-methyl-N-methylsulfonyl-thiazole-4-carboxamide] to `Cc1sc(N(CCc2ccccc2C#N)Cc2ccccc2)nc1C(=O)NS(C)(=O)=O` [Example 302, 2-[benzyl-[2-(2-cyanophenyl)ethyl]amino]-5-methyl-N-methylsulfonyl-thiazole-4-carboxamide], the EC50 falls from greater than 2000 nM to 1260 nM.

Going from `CCS(=O)(=O)NC(=O)c1nc(N(CCc2ccc(Cl)cc2)CC2CCCCC2)sc1C` [Compound 698, 2-[2-(4-chlorophenyl)ethyl-(cyclohexylmethyl)amino]-N-ethylsulfonyl-5-methyl-thiazole-4-carboxamide] to `Cc1sc(N(CCc2ccc(Cl)cc2)CC2CCCCC2)nc1C(=O)NS(=O)(=O)C(F)(F)F` [Compound 700, 2-[2-(4-chlorophenyl)ethyl-(cyclohexylmethyl)amino]-5-methyl-N-(trifluoromethylsulfonyl)thiazole-4-carboxamide], the EC50 rises from 794 nM to greater than 2000 nM.

First: Cc1sc(N(Cc2ccccc2)c2ccccc2OC(F)(F)F)nc1C(=O)NS(C)(=O)=O [Compound 27, 2-[N-benzyl-2-(trifluoromethoxy)anilino]-5-methyl-N-methylsulfonyl-thiazole-4-carboxamide]
Second: Cc1sc(N(Cc2ccccc2)c2cccc(C(F)(F)F)c2)nc1C(=O)NS(C)(=O)=O [Example 224, 2-[N-benzyl-3-(trifluoromethyl)anilino]-5-methyl-N-methylsulfonyl-thiazole-4-carboxamide]
The EC50 of the first is higher: greater than 2000 nM for the first, 1260 nM for the second.

First: Cc1sc(N(Cc2cc(C(F)(F)F)ccc2C(F)(F)F)c2ccc(C#N)cc2)nc1C(=O)NS(C)(=O)=O [Compound 415, 2-[N-[[2,5-bis(trifluoromethyl)phenyl]methyl]-4-cyano-anilino]-5-methyl-N-methylsulfonyl-thiazole-4-carboxamide]
Second: Cc1sc(N(Cc2ccc(C(F)(F)F)cc2C(F)(F)F)c2ccc(C#N)cc2)nc1C(=O)NS(C)(=O)=O [Compound 414, 2-[N-[[2,4-bis(trifluoromethyl)phenyl]methyl]-4-cyano-anilino]-5-methyl-N-methylsulfonyl-thiazole-4-carboxamide]
The EC50 of the first is higher: greater than 2000 nM for the first, 501 nM for the second.

`Cc1sc(N(Cc2ccccc2)c2ccc(C#N)cc2)nc1C(=O)NS(=O)(=O)CCN1C(=O)c2ccccc2C1=O` [Compound 373, 2-(N-benzyl-4-cyano-anilino)-N-[2-(1,3-dioxoisoindolin-2-yl)ethylsulfonyl]-5-methyl-thiazole-4-carboxamide] and `Cc1sc(N(Cc2ccccc2)c2cccc3ccccc23)nc1C(=O)NS(C)(=O)=O` [Example 227, 2-[benzyl(1-naphthyl)amino]-5-methyl-N-methylsulfonyl-thiazole-4-carboxamide] cannot be ordered by EC50: greater than 2000 nM for the first, greater than 2000 nM for the second.

First: Cc1sc(N(Cc2ccccc2CO)c2ccc(C#N)cc2)nc1C(=O)NS(C)(=O)=O [Compound 355, 2-[4-cyano-N-[[2-(hydroxymethyl)phenyl]methyl]anilino]-5-methyl-N-methylsulfonyl-thiazole-4-carboxamide]
Second: Cc1sc(N(c2ccc(C#N)cc2)C(C)c2ccccc2)nc1C(=O)NS(C)(=O)=O (centres unmarked) [Compound 58, 2-[4-cyano-N-(1-phenylethyl)anilino]-5-methyl-N-methylsulfonyl-thiazole-4-carboxamide]
The EC50 of the first is lower: 501 nM for the first, greater than 2000 nM for the second.

First: Cc1ncsc1CCN(Cc1ccccc1)c1nc(C(=O)NS(C)(=O)=O)c(C)s1 [Example 311, 2-[benzyl-[2-(4-methylthiazol-5-yl)ethyl]amino]-5-methyl-N-methylsulfonyl-thiazole-4-carboxamide]
Second: Cc1sc(N(CCc2ccncc2)Cc2ccccc2)nc1C(=O)NS(C)(=O)=O [Compound 743, 2-[benzyl-[2-(4-pyridyl)ethyl]amino]-5-methyl-N-methylsulfonyl-thiazole-4-carboxamide]
The EC50 of the first is higher: greater than 2000 nM for the first, 631 nM for the second.

Compared with `Cc1sc(N(Cc2ccccc2)c2ccc(F)cc2F)nc1C(=O)NS(C)(=O)=O` [Compound 36, 2-(N-benzyl-2,4-difluoro-anilino)-5-methyl-N-methylsulfonyl-thiazole-4-carboxamide], `Cc1sc(N(Cc2ccccc2)c2ccc(C#N)cc2Br)nc1C(=O)NS(C)(=O)=O` [Compound 142, 2-(N-benzyl-2-bromo-4-cyano-anilino)-5-methyl-N-methylsulfonyl-thiazole-4-carboxamide] is 2-fold lower in EC50: 1260 nM for the first, 631 nM for the second.

First: Cc1sc(N(Cc2ccccc2)Cc2csc3cc(C(F)(F)F)ccc23)nc1C(=O)NS(C)(=O)=O [Compound 676, 2-[benzyl-[[6-(trifluoromethyl)benzothiophen-3-yl]methyl]amino]-5-methyl-N-methylsulfonyl-thiazole-4-carboxamide]
Second: Cc1sc(N(Cc2ccccc2)C2CCCC2)nc1C(=O)NS(C)(=O)=O [Compound 669, 2-[benzyl(cyclopentyl)amino]-5-methyl-N-methylsulfonyl-thiazole-4-carboxamide]
The EC50 of the first is higher: greater than 2000 nM for the first, 631 nM for the second.

`Cc1sc(N(CCc2cccnc2)c2ccc(C#N)cc2)nc1C(=O)NS(C)(=O)=O` [Compound 134, 2-[4-cyano-N-[2-(3-pyridyl)ethyl]anilino]-5-methyl-N-methylsulfonyl-thiazole-4-carboxamide] and `Cc1sc(N(Cc2ccccc2)c2cccc(OCCOCc3ccccc3)c2)nc1C(=O)NS(C)(=O)=O` [Example 208, 2-[N-benzyl-3-(2-benzyloxyethoxy)anilino]-5-methyl-N-methylsulfonyl-thiazole-4-carboxamide] cannot be ordered by EC50: greater than 2000 nM for the first, greater than 2000 nM for the second.

With `Cc1sc(N(C[C@H]2CCC[C@@H](CO)C2)c2ccc(C(F)(F)F)cc2)nc1C(=O)NS(C)(=O)=O` (racemic) [Compound 348, 2-[N-[[cis-3-(hydroxymethyl)cyclohexyl]methyl]-4-(trifluoromethyl)anilino]-5-methyl-N-methylsulfonyl-thiazole-4-carboxamide] the EC50 was 1260 nM.
